Results: paper PMC4585798 (Scientific Reports, 2015)
Positions of bridges follow the written chain, without caps; N, C: chain ends. Residues, ends and D or L forms follow the SMILES beside them.

Experiments:
Assay in all cases: cell-based
[1] = target: hα9α10 nAChR (Homo sapiens, UniProt Q9GZZ6+Q9UGM1)
[2] = target: rα9α10 nAChR (Rattus norvegicus, UniProt P43144+Q9JLB5)
[3] = target: hα9rα10 nAChR (UniProt Q9JLB5+Q9UGM1); set-up: species or system human α9 and rat α10
[4] = target: hα9α10[L7H] nAChR (Homo sapiens, UniProt Q9GZZ6+Q9UGM1, L31H); assay type: cell-based
Chain of hα9α10[L7H] nAChR (Q9UGM1 26-479 limits assumed, stated change not applied): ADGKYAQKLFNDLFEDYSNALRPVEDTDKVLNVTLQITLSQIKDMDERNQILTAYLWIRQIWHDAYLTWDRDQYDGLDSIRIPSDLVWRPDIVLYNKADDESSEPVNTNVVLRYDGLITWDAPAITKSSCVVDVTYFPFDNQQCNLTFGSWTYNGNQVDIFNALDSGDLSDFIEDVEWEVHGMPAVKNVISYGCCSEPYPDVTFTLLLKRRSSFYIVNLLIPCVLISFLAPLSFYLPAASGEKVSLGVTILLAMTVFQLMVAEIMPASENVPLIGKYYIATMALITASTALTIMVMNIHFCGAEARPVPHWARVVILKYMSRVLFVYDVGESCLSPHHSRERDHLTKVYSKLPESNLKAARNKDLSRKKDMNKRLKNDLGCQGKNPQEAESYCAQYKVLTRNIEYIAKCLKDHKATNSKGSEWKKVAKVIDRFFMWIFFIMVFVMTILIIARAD
Chain of hα9α10[L7H] nAChR (Q9GZZ6 25-450 L31H limits assumed, stated change not applied): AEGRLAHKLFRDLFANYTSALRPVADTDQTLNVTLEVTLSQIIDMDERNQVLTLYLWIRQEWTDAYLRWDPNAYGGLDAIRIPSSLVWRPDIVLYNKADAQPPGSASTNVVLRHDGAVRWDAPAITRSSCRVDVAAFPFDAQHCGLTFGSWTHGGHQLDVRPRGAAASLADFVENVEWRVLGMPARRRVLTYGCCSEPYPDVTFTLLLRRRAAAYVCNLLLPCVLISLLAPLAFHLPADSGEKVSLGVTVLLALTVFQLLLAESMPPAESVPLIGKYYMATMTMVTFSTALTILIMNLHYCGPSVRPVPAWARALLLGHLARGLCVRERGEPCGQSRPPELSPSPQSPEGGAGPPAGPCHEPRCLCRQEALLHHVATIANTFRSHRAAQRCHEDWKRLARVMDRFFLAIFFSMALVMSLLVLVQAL

Chain of rα9α10 nAChR (P43144 26-479 limits assumed): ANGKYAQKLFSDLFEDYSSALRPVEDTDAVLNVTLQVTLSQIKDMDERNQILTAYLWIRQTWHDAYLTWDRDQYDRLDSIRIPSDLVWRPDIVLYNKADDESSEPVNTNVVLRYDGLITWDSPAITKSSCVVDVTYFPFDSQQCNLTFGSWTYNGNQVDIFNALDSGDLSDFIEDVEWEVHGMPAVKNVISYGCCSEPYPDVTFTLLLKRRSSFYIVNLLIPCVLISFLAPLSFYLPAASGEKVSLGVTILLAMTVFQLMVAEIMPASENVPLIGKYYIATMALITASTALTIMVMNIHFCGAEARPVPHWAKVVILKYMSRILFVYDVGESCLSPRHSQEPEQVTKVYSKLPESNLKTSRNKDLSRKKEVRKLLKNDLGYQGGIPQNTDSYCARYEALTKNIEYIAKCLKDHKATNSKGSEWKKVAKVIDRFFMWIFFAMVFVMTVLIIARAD
Chain of rα9α10 nAChR (Q9JLB5 25-447 limits assumed): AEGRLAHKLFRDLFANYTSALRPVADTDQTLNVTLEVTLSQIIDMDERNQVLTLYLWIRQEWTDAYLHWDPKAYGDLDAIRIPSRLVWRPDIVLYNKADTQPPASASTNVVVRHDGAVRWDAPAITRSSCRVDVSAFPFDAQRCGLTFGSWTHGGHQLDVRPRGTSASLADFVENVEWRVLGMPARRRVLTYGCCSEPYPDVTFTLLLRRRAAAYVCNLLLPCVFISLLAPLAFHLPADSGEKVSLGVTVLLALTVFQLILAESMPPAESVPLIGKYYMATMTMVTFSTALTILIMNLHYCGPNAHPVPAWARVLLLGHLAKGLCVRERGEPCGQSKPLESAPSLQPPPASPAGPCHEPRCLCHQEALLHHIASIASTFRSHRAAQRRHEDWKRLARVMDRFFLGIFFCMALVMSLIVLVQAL
Chain of hα9α10 nAChR (Q9UGM1 26-479 limits assumed): as the sequence (Q9UGM1 26-479 limits assumed, stated change not applied) above
Chain of hα9α10 nAChR (Q9GZZ6 25-450 limits assumed): as the sequence (Q9GZZ6 25-450 L31H limits assumed, stated change not applied) above, with H7L counted along it
Chain of hα9rα10 nAChR (Q9UGM1 26-479 limits assumed): as the sequence (Q9UGM1 26-479 limits assumed, stated change not applied) above
Chain of hα9rα10 nAChR (Q9JLB5 25-447 limits assumed): as the sequence (Q9JLB5 25-447 limits assumed) above

CSCC[C@H](NC(=O)[C@@H](NC(=O)[C@@H]1CSSC[C@@H]2NC(=O)[C@H](CC(=O)O)NC(=O)[C@H](C)NC(=O)[C@H](CCCNC(=N)N)NC(=O)[C@H](C)NC(=O)[C@@H]3CSSC[C@H](NC(=O)CNC(=O)[C@H](Cc4c[nH]cn4)NC(=O)CNC(=O)[C@H](CCCNC(=N)N)NC(=O)[C@H](Cc4c[nH]c5ccccc45)NC(=O)[C@H]([C@@H](C)O)NC(=O)[C@H](Cc4c[nH]cn4)NC(=O)[C@H](Cc4ccc(O)cc4)NC(=O)[C@H](C(C)C)NC(=O)[C@H](CSSC[C@H](NC(=O)[C@H](CC(C)C)NC(=O)[C@H](CCCNC(=N)N)NC(=O)[C@@H](N)[C@@H](C)O)C(=O)N[C@@H](CO)C(=O)N[C@@H]([C@@H](C)O)C(=O)N[C@@H](CCSC)C(=O)N[C@@H](CO)C(=O)N3)NC(=O)[C@H]([C@@H](C)O)NC2=O)C(=O)N[C@@H](CO)C(=O)N1)C(C)C)C(=O)O [GeXXA-CTD] (H-TRLCSTMSCARADCTCVYHTWRGHGCSCVM-OH; disulfide 4-16, 9-26, 14-28)
IC50 [1]: 2020 nM | IC50 [2]: 198 nM | IC50 [3]: 224 nM | IC50 [4]: 183 nM
